In ChEMBL document CHEMBL1135147, “8-Methoxyquinolines as PDE4 inhibitors” (Bioorg Med Chem Lett, 2002) one finds IC50, Ratio and inhibition data, which are given here for nine compounds.

The target in assay [1] is Phosphodiesterase 4 (Rattus norvegicus, UniProt P14270+P14646+P14644+P54748). Description: Inhibition of rolipram binding to PDE4 in rat brain. In kind it is tissue-based.
Assay [2] deals with T1, Phosphodiesterase 4 (Homo sapiens, UniProt P27815+Q08499+Q07343+Q08493). Description: Relative inhibition of PDE4 activity and rolipram binding. In kind it is protein assay.
In assay [3] the target is T1, Phosphodiesterase 4. Description: Inhibition of Phosphodiesterase 4 from human U937 cells. In kind it is cell-based. The note with it: u-937.
Assay [4] concerns the target Phosphodiesterase 3 (Homo sapiens) (UniProt Q14432+Q13370). Description: Inhibition of human platelet Phosphodiesterase 3 at 20 uM.

As to `COc1ccc(C(=O)Nc2c(Cl)cncc2Cl)c2ccc(C(C)O)nc12` (stereo not drawn), the half-maximal inhibitory concentration (IC50) (in general, the concentration that gives 50% inhibition) at Phosphodiesterase 4 [1] was found to be 790 nM; on Phosphodiesterase 4 [3], 180 nM. For the same compound, at Phosphodiesterase 4 [2], the Ratio is 0.22. The inhibition (as a rule, the percentage by which the read-out fell short of the control) in assay [4] amounted to 30%.
On the same counts, the results for `COc1ccc(C(=O)Nc2c(Cl)cncc2Cl)c2ccc(C(F)(F)F)nc12` are 77 nM, 51 nM, 0.66 and 15%.
For `CON=C(C)c1ccc2c(C(=O)Nc3c(Cl)cncc3Cl)ccc(OC)c2n1`, in that order: 140 nM, 210 nM, 1.5 and 22%.
For `COc1ccc(C(=O)Nc2c(Cl)cncc2Cl)c2ccc(C#N)nc12`, in that order: 43 nM, 700 nM, 16.3 and 38%.
As for `CCc1ccc2c(C(=O)Nc3c(Cl)cncc3Cl)ccc(OC)c2n1`, the IC50 on Phosphodiesterase 4 [1] turned out to be 75.3 nM; on Phosphodiesterase 4 [3] it was 43 nM. The Ratio at Phosphodiesterase 4 [2] was 0.57. In assay [4], the inhibition came out at 35%.
For `COc1ccc(C(=O)Nc2c(Cl)cncc2Cl)c2ccc(C(C)=O)nc12`, in that order: 1500 nM, 440 nM, 0.29 and 27%.
On the same counts, the results for `COc1ccc(C(=O)Nc2c(Cl)cncc2Cl)c2ccc(C)nc12` are 74 nM, 88 nM, 1.19 and 21%.
With `CCc1cnc2c(OC)ccc(C(=O)Nc3c(Cl)cncc3Cl)c2c1`, the IC50 at Phosphodiesterase 4 [1] is 160 nM; against Phosphodiesterase 4 [3] it was 210 nM. For the same compound, the Ratio at Phosphodiesterase 4 [2] was 1.31. The inhibition in assay [4] came to 12%.
In turn, `COc1ccc(C(=O)Nc2c(Cl)cncc2Cl)c2cccnc12` came in with an inhibition in assay [4] of 10%.
